The values below come from patent US6943191B1, “Disubstituted lavendustin A analogs and pharmaceutical composition comprising the analogs” (The United States of America as represented by the …, priority 1998, dated 2005).

The IC50 is the point on the concentration scale where inhibition reaches its midpoint. The term GI50 denotes the concentration at which growth is held to half of that of the control.

Like-named read-outs stand apart in the source and are kept apart here.

Assay [1] concerns the target T1, p210^bcr-abl (Homo sapiens, UniProt P00519).
T1 construct: immune complexes containing ^32P-labeled p210^bcr-abl were collected on protein Sepharose beads; BCR (N-terminal part of the breakpoint cluster region protein, natural fusion partner); endogenous in cells; host or cells: K562 cells (lysate, immunoprecipitated on Protein A-Sepharose); the other entry of the earlier key: BCR (P11274, Breakpoint cluster region protein)
Kind of assay: Inhibition of in vitro auto-phosphorylation of p210^bcr-abl, immune-complex kinase assay. In kind it is biochemical. The settings on record: immune complex kinase assay, 3 experiments, read-out: Enzyme Assays IC50 (μM) p210bcl-abl in vitro phosphorylation. The method, then:
Inhibition of in vitro auto-phosphorylation of p210^bcr-abl in immune-complex kinase assays were conducted as follows. K562 cell line cells were washed twice in […]. The washed cells were lysed in PLC lysis buffer 150 mM HEPES (pH 7.5), 150 mM NaCl, 10% (v/v) glycerol, 1% (v/v) Triton X-100, 1.5 mM MgCl2, 1 mM EGTA. 10 μg/ml leupeptin, 10 μg/ml aprotinin, 1 mM sodium orthovanadate. 10 mM sodium pyrophosphate, 100 mM sodium fluoride and 1 mM phenylmethyl sulfonyl fluoride| Cell lysates were centrifuged at 100,000 g for 15 minutes and the supernatant collected. Protein concentrations of the clarified supernatants were determined by the Bradford Protein Assay, and the same quantity of protein was immunoprecipitated from control (vehicle-treated) and drug-treated cells. Cell lysates were incubated and gently rocked at 4° C. for 4 hours overnight with antibodies. Immune complexes were collected by incubation with Protein A-Sepharose beads (Pharmacia, Piscataway N.J.) and immune complexes (beads) were washed three times with HNTG buffer [20 mM HEPES (pH 7.5), 10% glycerol, 0.1% Triton X-100, 150 mM NaCl and 1 mM sodium orthovanadate] to remove unbound material. Bound proteins were boiled for 5 minutes in 2×SDS sample buffer (63 mM Tris-HCl, ph 6.8; 10% glycerol; 2% SDS; 0.0025% bromophenol blue: and […] 2 mercaptoethanol) prior to SDS-PAGE. Proteins were resolved on 4-20% gradient mini gels from Novex Experimental Technology (San Diego, Calif.).
After SDS-PAGE, proteins were electrophoretically transferred onto Immobilon polyvinylidene difluoride (PVDF) membranes (Millipore, Bedford, Mass.) at 250 mA for 4 hours at 4° C. using 2× Tris glycine transfer buffer (50 mM Tris, glycine), 20% methanol and 0.1% SDS. Residual binding sites on the membrane were blocked by incubation in TTS (20 mM Tris pH 7.4, 0.9% NaCl and 0.05% Tween 20) containing 3% BSA overnight at 4° C. or for 4 hours at room temperature. Blots were incubated for 1-1.5 hours with TTS containing 0.3% BSA with 1 μg/ml of mouse anti-P-Tyr, 2 μg/ml of mouse anti-Grb2 or 1 μg/ml of rabbit anti-She antibody. Blots were washed three times for 6 minutes each with TTS containing 0.3% BSA and probed with a 1:1000 dilution of rabbit anti-mouse antibody or directly with [^125I]Protein A (Amersham, Arlington Heights, Ill.) in blocking solutions. Proteins were visualized by autoradiography (exposed for 1-2 days at −70° C.).
The p210^bcr-abl, protein immunoprecipitates were washed twice with HTNG buffer Immunoprecipitates were washed once with 50 mM Tris (pH 7.0) and distributed to each reaction in 20 μl of 20 mM PIPES [piperazine-N,N′-bis(ethanesulfonic acid)] (pH 7.0)−20 mM MnCl2. Then, 10 μl of compounds made according to the present invention at desired concentrations from working stock solution prepared in 20 mM PIPEs (pH 7.0)−20 mM MnCl2 were added to each reaction tube. Reactions were initiated with the addition of 10 μl of [γ-^33P]ATP (10 μCi per sample, 3000 Ci/mmol; Amersham), incubated for 20 minutes at 30° C., stopped by addition of 10 μl of 5×SDS sample buffer, heated at 100° C. for 5 minutes, and analyzed on 4-20% SDS-PAGE and by autoradiography.
To assess the effect of drugs added in vitro on the state of p210^bcr-abl in the immune complexes, K562 cells were labeled with ^32P, lysed in PLC buffer and immune complexes containing ^32P-labeled p210^bcr-abl were collected on protein Sepharose beads and beads were washed four times with HNTG buffer. Immune complexes were divided into several tubes in 30 μl of PLC buffer in the presence of compounds made as described herein.

Assay [2] concerns panel of approximately 60 different human tumor cell lines. As to the kind of experiment: National Cancer Institute drug screen, mean-graph parameters. It is filed as cell-based. The note with it: mean over cell line panel, two days exposure; for GI50: Homo sapiens, 48 h. As for the experimental part:
Compounds of the present invention also have been subjected to the drug screening procedure employed by the National Cancer Institute for the screening of drugs having possible anticancer utility. The screening procedure uses a diverse, disease-oriented panel consisting of approximately 60 different human tumor cell lines organized into disease-specific subpanels. The compounds of the present invention were tested over a range of concentrations for cytotoxic or growth-inhibitory effects against cell lines comprising the panel. The eight subpanels represented diverse histologies (leukemias, melanomas, and tumors of the lung, colon, kidney, breast, ovary, and brain).
Compounds of the present invention were tested over a period of two days. During this period the cells were continuously exposed to various concentrations of the compounds tested. The tests produced individual dose-responses, one for each cell line (i.e. one for each example), and the data were represented in dose-response curves. The data provided by these dose response curves were summarized using a mean-graph format.
To produce data for the mean-graph format, a compound concentration that produced a target level response was calculated for each cell line. Three different response parameters were evaluated. The first response parameter was the growth inhibition (“GI50”). GI50 is the concentration of compounds made according to the present invention that produced an apparent 50% decrease in the number of tumor cells relative to the appropriate control (not exposed to the compounds of the present invention) at the end of the incubation period.
The second response parameter was the total growth inhibition (“TGI”). TGI is the concentration at which the number of tumor cells remaining at the end of the incubation period substantially equal the number of tumor cells existing at the start of the incubation period.
The third response parameter was the lethal concentration (“LC50”) LC50 is the concentration of compounds made according to the present invention that caused an apparent 50 percent reduction in the number of tumor cells […] at the start of the incubation period.
In a typical GI50 mean graph, the relative position of the vertical reference line along the horizontal concentration axis was obtained by averaging the negative log10GI50 values for all the cell lines tested against the compound. Horizontal bars were then plotted for the individual negative log10GI50 values of each cell line relative to the vertical reference line. The GI50 graph thus provided a characteristic fingerprint for the compound, displaying the individual cell lines that are proportionately more sensitive than average (bars extending to the right of the reference line) or proportionately less sensitive than average (bars extending to the left of the reference line). The length of a bar was proportional to the difference between the log10GI50 value obtained with the particular cell line and the mean (represented by the vertical reference line).
Similar mean graphs were prepared for the TGI and LC50 response parameters.

Assay [3] deals with K562 cells. Kind of assay: K562 cell culture and growth assay, 6 day MTT. The note with it: K562, 6 days, 4 or more experiments. In kind it is cell-based, human. The method, then: This example describes the procedure used for cell culture and growth assays. Human leukemia, Philadelphia-chromosome-positive CML cell line K562 was obtained from ATCC (Rockville, Md.). Cells were cultured in RPMI medium containing 10% fetal calf serum, 2 mM glutamine, 100 units/ml of penicillin and 100 μg/ml streptomycin Cells (2×10^3 cells/well) were incubated with increasing concentrations of compounds of the present invention dissolved in DMSO in a final volume of 200 μl in 96-well plates. Control cells were incubated with medium containing identical concentrations of the DMSO solvent. Growth of K562 cells was quantitated after 6 days by ability of living cells to reduce the yellow dye 3-(4,5-dimethylthiazolyl)-2,5-diphenyltetrazolium bromide (MTT) to a blue formazan product. Further information concerning this procedure is provided by Mossman T., “Rapid Colorimetric Assay for Cellular Growth and Survival—Application to Proliferation and Cytotoxicity Assays,” J. Immunol. Methods 1983, 65:55-63, which is incorporated herein by reference.

Where [4] appears, read: Table 9, read-out: Tumor cell Mean log GI50 (converted).
The mark [5] stands for this setting: Homo sapiens, 144 h, Table 9, mean ± S.E., read-out: IC50 (μM) 6dMTT.
[6] abbreviates: Homo sapiens, 144 h, Table 8, mean+S.E., read-out: IC50 (μM) 6 dMTT.

T1 sequence (P00519 with tags, fused parts or gaps): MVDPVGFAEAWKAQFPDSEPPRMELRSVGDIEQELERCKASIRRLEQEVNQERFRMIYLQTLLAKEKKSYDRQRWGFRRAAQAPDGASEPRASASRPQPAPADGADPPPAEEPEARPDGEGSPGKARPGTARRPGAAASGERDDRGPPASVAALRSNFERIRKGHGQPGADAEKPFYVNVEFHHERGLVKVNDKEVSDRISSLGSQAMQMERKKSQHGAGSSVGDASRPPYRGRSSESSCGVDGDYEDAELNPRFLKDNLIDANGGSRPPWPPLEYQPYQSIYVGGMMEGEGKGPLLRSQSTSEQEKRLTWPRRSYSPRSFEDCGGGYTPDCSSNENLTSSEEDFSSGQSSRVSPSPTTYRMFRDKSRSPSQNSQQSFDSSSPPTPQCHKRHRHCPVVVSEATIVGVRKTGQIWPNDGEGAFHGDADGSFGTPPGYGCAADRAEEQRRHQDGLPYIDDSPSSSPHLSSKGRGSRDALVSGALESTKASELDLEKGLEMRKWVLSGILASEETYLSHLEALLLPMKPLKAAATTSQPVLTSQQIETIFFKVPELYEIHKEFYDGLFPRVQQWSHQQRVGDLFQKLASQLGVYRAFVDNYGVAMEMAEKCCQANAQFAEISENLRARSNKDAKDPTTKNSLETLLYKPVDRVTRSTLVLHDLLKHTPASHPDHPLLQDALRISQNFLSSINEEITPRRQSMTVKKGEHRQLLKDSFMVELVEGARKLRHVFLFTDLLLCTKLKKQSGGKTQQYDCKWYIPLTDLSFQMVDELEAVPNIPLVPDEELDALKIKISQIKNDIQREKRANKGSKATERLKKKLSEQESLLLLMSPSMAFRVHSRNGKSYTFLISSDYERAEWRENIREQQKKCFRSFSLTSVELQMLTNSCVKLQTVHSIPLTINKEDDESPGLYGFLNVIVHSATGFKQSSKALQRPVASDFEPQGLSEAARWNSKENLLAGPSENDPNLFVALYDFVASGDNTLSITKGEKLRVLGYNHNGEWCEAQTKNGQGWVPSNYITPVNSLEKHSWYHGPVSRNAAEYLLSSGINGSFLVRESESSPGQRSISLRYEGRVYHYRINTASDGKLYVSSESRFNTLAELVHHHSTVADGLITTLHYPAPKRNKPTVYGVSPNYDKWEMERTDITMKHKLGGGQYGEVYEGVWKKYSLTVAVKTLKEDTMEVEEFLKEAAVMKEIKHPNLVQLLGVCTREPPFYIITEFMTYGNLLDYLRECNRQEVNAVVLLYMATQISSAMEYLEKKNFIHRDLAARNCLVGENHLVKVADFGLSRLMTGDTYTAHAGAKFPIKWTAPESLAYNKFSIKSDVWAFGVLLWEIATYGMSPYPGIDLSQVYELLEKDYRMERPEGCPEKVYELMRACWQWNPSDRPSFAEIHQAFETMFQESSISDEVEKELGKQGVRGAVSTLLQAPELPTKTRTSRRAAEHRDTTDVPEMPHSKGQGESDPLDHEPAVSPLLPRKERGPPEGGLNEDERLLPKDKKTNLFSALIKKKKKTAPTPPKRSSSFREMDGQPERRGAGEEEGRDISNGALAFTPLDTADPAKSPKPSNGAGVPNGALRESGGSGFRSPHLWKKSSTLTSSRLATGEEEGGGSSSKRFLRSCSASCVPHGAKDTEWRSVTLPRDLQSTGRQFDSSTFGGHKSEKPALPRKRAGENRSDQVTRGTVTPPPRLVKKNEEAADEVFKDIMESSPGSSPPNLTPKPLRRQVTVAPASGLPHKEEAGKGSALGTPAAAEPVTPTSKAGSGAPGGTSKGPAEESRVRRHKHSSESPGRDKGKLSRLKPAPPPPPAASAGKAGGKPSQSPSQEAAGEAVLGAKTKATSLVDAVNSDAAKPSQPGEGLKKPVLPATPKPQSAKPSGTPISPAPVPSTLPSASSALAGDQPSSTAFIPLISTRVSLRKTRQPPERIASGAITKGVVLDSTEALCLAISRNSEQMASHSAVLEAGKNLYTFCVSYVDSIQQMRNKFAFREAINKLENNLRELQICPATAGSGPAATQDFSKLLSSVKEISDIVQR

Take `COC(=O)c1ccc(CCc2cc(O)ccc2O)cc1`: the IC50 in assay [1] (Table 10, mean ± S.E.) was found to be 2.64 ± 0.99 µM; in assay [3] (Homo sapiens, 144 h, Table 10, mean ± S.E., read-out: IC50 (μM) 6dMTT), 18.5 ± 5.62 µM. For the same compound, in assay [2] (Table 10, read-out: Tumor Cell Mean log GI50 (converted)), the GI50 was 10 µM. Moreover, the “Tumor Cell Mean log TGI” value in assay [2] (Table 10) was −4.43.
For the compound `COC(=O)c1ccc(NCc2cc(O)ccc2O)cc1` [COOCH3 / H / H, reference compound], in assay [1] (Table 8, mean+S.E.), the IC50 came out at 2.9 µM. Moreover, in assay [2] (Table 8), the “Tumor Cell Mean log GI50” value is given as −4.95 and the “Tumor Cell Mean log TGI” value was −4.52. Moreover, the IC50 in assay [3] (Table 8, mean+S.E., read-out: IC50 (μM) 6 dMTT) is 16.6 µM.
As for `O=C1C=CC(=O)C(CNc2ccc(C(=O)OCc3ccccc3)cc2)=C1` [COOCH2—C6H6 / H / 2,5-quinoyl], the IC50 in assay [1] (Table 9, mean ± S.E.) was 8.75 ± 1.25 µM; in assay [3] (setting [5]), 22.8 ± 18 µM. For the same compound, the GI50 in assay [2] (setting [4]) is 5.01 µM. In addition, the “Tumor Cell Mean log TGI” value in assay [2] (Table 9) is recorded as −4.78.
The matching figures for `COC(=O)c1ccc(NCC2=CC(=O)C=CC2=O)cc1O` [Compound 20, 3′-hydroxy-4′-methylbenzoate-1′-N-p-quinone-2-methyl amine]: 5.15 ± 1.01 µM, 17 ± 0.3 µM, 17 µM and −4.36.
For the compound `CC(C)N(C(=O)c1ccc(NCc2cc(O)ccc2O)cc1)C(C)C` [CON[CH(CH3)2]2 / H / H, 4′-diisopropylbenzamide-N-2,5-dihydroxybenzylamine], the IC50 in assay [1] (Table 8, mean+S.E.) was determined as 2.36 µM. In assay [2] (Table 8), the “Tumor Cell Mean log GI50” value was −4.88 and the “Tumor Cell Mean log TGI” value was −4.36. In assay [3] (setting [6]), the IC50 stood at 18.2 µM.
On to `COC(=O)c1cc(NCc2cc(O)cc(Br)c2O)ccc1Cl` [4′-chloro-5′-methylbenzoate-1′-N-3-bromo-2,5-dihydroxybenzylamine], for which the IC50 in assay [1] (Table 9, mean ± S.E.) was found to be 3.56 ± 0.53 µM. For the same compound, in assay [2] (Table 9), the “Tumor Cell Mean log GI50” value was −4.86 and the “Tumor Cell Mean log TGI” value was −4.43. Moreover, in assay [3] (Table 9, mean ± S.E., read-out: IC50 (μM) 6dMTT), the IC50 is 8.9 ± 0.5 µM.
On to `O=C(O)c1cc(N(Cc2ccccc2O)Cc2cc(O)ccc2O)ccc1O` [Lavendustin A, 5-[(2,5-dihydroxy-benzyl)-(2-hydroxy-benzyl)-amino]-2-hydroxy-benzoic acid], for which the IC50 in assay [1] (Table 8, mean+S.E.) was found to be 41.1 µM. In assay [2] (Table 8), the “Tumor Cell Mean log GI50” value was −4.06 and the “Tumor Cell Mean log TGI” value is on record as −4.00. Moreover, in assay [3] (setting [6]), the IC50 worked out at 44.7 µM.
`CC(C)OC(=O)c1ccc(NCC2=CC(=O)C=CC2=O)cc1` [Compound 21, 4′-isopropylbenzoate-1′-N-p-quinone-2-methyl amine]: the IC50 in assay [1] (Table 9, mean ± S.E.) came to 13.7 ± 5.78 µM; in assay [3] (setting [5]), 17.4 ± 1 µM. Also, in assay [2] (setting [4]), the GI50 was 26.9 µM. Besides, in assay [2] (Table 9), the “Tumor Cell Mean log TGI” value is listed as −4.55.
With `O=C(O)c1ccc(NCc2cc(O)ccc2O)cc1` [COOH / H / H], the IC50 in assay [1] (Table 8, mean+S.E.) was 18.5 µM. Also, in assay [2] (Table 8), the “Tumor Cell Mean log GI50” value is −4.96 and the “Tumor Cell Mean log TGI” value is listed as −4.60. In addition, the IC50 in assay [3] (setting [6]) is 41.9 µM.
On the same counts, the results for `CC(=O)c1ccc(NCc2cc(O)ccc2O)cc1` [Compound 17, 4′-acetophenone-1′-N-2,5-dihydroxybenzylamine] are 1.03 µM, −4.72, −4.25 and 13 µM.
`Oc1ccc(O)c(CNc2ccc(C(O)C(F)(F)F)cc2)c1` (centres unmarked) [CH(OH)CF3 / H / H, 4′-(trifluoromethylethanol)-1′-N-2,5-dihydroxybenzylamine]: the IC50 in assay [1] (Table 8, mean+S.E.) was found to be 0.57 µM; in assay [3] (setting [6]) it was 14.3 µM. Moreover, the “Tumor Cell Mean log GI50” value in assay [2] (Table 8) was −4.82. For the same compound, the “Tumor Cell Mean log TGI” value in assay [2] (Table 8) is on record as −4.34.
